Data as given in patent publication US8993768B2, “Tropolone compounds for treating or preventing retroviral infection” (The United States of America, as represented by the …, priority 2011, dated 2015).
Read-outs that look alike come from different tables or passages of the source.

Tests used:
[1] = tested on: HIV-1 virus strain RF in CEM-SS cells; assay: HIV-1 cytopathicity assay; format: cell-based; conditions: for EC50: read-out: Virus Replication EC50
Method: This assay was conducted as previously reported (Weislow, O, S., et al., J. Natl. Cancer Inst., 81(8):577-86 (1989)). Samples were dissolved in DMSO at 10 mM and diluted to a final high concentration of 50 μM in the 96-well assay plate, with 2-fold dilutions made to a low concentration of about 0.78 μM. All samples were tested in duplicate. The HIV-1 virus strain RF was used to infect CEM-SS cells. Compound cytotoxicity was measured in the same assay plate using uninfected cells. Regression analysis was used to estimate the effective concentration (EC50) as well as the cytotoxic concentration (CC50).

[2] = biological target: T1, HIV-1 RNase H (p66/p51 HIV-1 RT) (Human immunodeficiency virus type 1 group M subtype B, UniProt P04585); assay: High throughput RNase H assay on sequence-independent RNA/DNA hybrid; format: biochemical; conditions: read-out: In vitro IC50
T1 construct: RT is a p66/p51 heterodimer comprised of asymmetrically-organized subunits processed from the 165 kDa gag/pol polyprotein precursor; (His)6; made in house; host or cells: Escherichia coli
Method: IC50 values were determined as previously reported (Budihas, S. R., et al., Nucleic Acids Res., 33(4):1249-56 (2005)), using an 18-nucleotide 3′-flourescein-labeled RNA annealed to a complementary 18-nucleotide 5′-dabsyl-labeled DNA. […] The reaction was initiated by adding 1 μl of 100 mM MgCl2 to 9 μl of mixture containing 4 ng enzyme, 200 nM substrate, 20 μM α-hydroxytropolones in 50 mM Tris, pH 8.0, 80 mM KCl, 2 mM DTT, and 10% DMSO at 37° C., and quenched with 10 μl of a gel-loading buffer after 10 minutes. Hydrolysis products were fractionated by denaturing polyacrylamide gel electrophoresis and visualized by fluorescent imaging (Typhoon Trio+, GE Healthcare, Piscataway, N.J.). […]

[3] = tested on: uninfected CEM-SS cells; assay: Compound cytotoxicity in uninfected cells (same assay plate); format: cell-based; conditions: for cytotoxicity (in words): up to a concentration of 50 μM
Method: (§1) All samples were tested in duplicate. The HIV-1 virus strain RF was used to infect CEM-SS cells. Compound cytotoxicity was measured in the same assay plate using uninfected cells. Regression analysis was used to estimate the effective concentration (EC50) as well as the cytotoxic concentration (CC50).

[4] = as above; format: cell-based; conditions: human, uninfected CEM-SS cells; read-out: Virus Replication CC50
Method: as §1

[5] = biological target: T2, HIV-1 RT RNase H (Human immunodeficiency virus type 1 group M subtype B, UniProt P04585); assay: Cleavage of the HIV-1 polypurine tract (PPT) primer, PPT/U3 junction; format: biochemical; conditions: 20 μM inhibitor
T2 construct: RT is a p66/p51 heterodimer comprised of asymmetrically-organized subunits processed from the 165 kDa gag/pol polyprotein precursor; (His)6; made in house; host or cells: Escherichia coli
Method: FIG. 2A depicts a schematic model of RNA/DNA substrate, indicating the RNase H cleavage site at the PPT/U3 junction (< >). The PPT is indicated by the shaded box. FIG. 2B depicts the quantification of PPT cleavage data. All inhibitors were evaluated at 20 μM.
IC50 values were determined as previously reported (Budihas, S. R., et al., Nucleic Acids Res., 33(4):1249-56 (2005)), using an 18-nucleotide 3′-flourescein-labeled RNA annealed to a complementary 18-nucleotide 5′-dabsyl-labeled DNA. […] The reaction was initiated by adding 1 μl of 100 mM MgCl2 to 9 μl of mixture containing 4 ng enzyme, 200 nM substrate, 20 μM α-hydroxytropolones in 50 mM Tris, pH 8.0, 80 mM KCl, 2 mM DTT, and 10% DMSO at 37° C., and quenched with 10 μl of a gel-loading buffer after 10 minutes. Hydrolysis products were fractionated by denaturing polyacrylamide gel electrophoresis and visualized by fluorescent imaging (Typhoon Trio+, GE Healthcare, Piscataway, N.J.).
Since the high-throughput RNase H assay examines non-specific, “polymerase-independent” RNase H activity defined by the spatial separation of the DNA polymerase and RNase H active site of HIV-1 RT (Gopalakrishnan, V., et al., Proc. Natl. Acad. Sci. USA, 89(22):10763-7 (1992)), an examination of whether α-hydroxytropolones altered cleavage specificity on a more biologically-relevant substrate, namely the polypurine tract (PPT) primer, which must be processed from the RNA/DNA replication intermediate to initiate (+) strand DNA synthesis.

[6] = biological target: T3, p66^DA/p51 HIV-1 RT (Human immunodeficiency virus type 1 group M subtype B, UniProt P04585, D1136A); assay: DNA-dependent DNA polymerase assay, RNase H-deficient mutant p66DA/p51; format: biochemical; conditions: 20 μM
T3 construct: RT is a p66/p51 heterodimer comprised of asymmetrically-organized subunits processed from the 165 kDa gag/pol polyprotein precursor; (His)6; made in house; host or cells: Escherichia coli
Method: (§2) DNA-dependent DNA synthesis was measured on a fluorescently-labeled duplex DNA prepared by annealing a 33-nt template, 5′-CACTGCTCAAGAAGTTCCAATCCTAAATACATA-3′ (SEQ ID NO: 3), to the 5′-Cy5-labeled primer 5′-ATGTATGGGTATGTATTTAGG-3′ (SEQ ID NO: 4). Polymerization was initiated by adding 1 μl of 2 mM dNTPs to 9 μl of mixture containing 4 ng enzyme, 200 nM substrate, 20 μM α-hydroxytropolones in 10 mM Tris, pH 7.8, 80 mM KCl, 1 mM DTT, 10 mM MgCl2, and 10% DMSO at 37° C. DNA synthesis was quenched with 10 μl of a gel-loading buffer after 10 minutes, and reaction products were analyzed by denaturing polyacrylamide gel electrophoresis and fluorescent imaging.
(§3) In order to examine the specificity of our manicol analogs, their effect on the DNA polymerase activity of wild type p66/p51 HIV-1 RT and RNase H-deficient derivatives was determined. In particular, RNase H-deficient strains p66^EQ/p51 and p66^DA/p51, were tested, which harbor mutations in one of the catalytically-critical amino acids contacted by manicol (E478 and D549, respectively), that would be predicted to interfere with α-hydroxytropolone binding.
(§4) Although crystallographic evidence is presently unavailable, compounds 5 and 10, thus appear capable of occupying a second site on HIV-1 RT.

[7] = biological target: T4, p66^EQ/p51 HIV-1 RT (Human immunodeficiency virus type 1 group M subtype B, UniProt P04585, E1065Q); assay: DNA-dependent DNA polymerase assay, RNase H-deficient mutant p66EQ/p51; format: biochemical; conditions: 20 μM
T4 construct: RT is a p66/p51 heterodimer comprised of asymmetrically-organized subunits processed from the 165 kDa gag/pol polyprotein precursor; (His)6; made in house; host or cells: Escherichia coli
Method: as §2, §3, §4

[8] = tested on: HIV-1 virus strain RF in CEM-SS cells; conditions: background, previous finding; cited from earlier work
[9] = biological target: T1, HIV-1 RNase H (p66/p51 HIV-1 RT); conditions: background, previously demonstrated; cited from earlier work
[10] = HIV-1 RNase H enzymatic activity, sequence-independent RNA/DNA hybrid
[11] = Human immunodeficiency virus 1, CEM-SS, HIV-1 RF
[12] = uninfected CEM-SS cells, read-out: Virus Replication CC50

Structure (SMILES)	protection against the cytopathic effect of the virus (in words) ([1]; HIV-1 RF)	IC50 [2, 10] [µM]	cytotoxicity (in words) [3]	CC50 [4] [µM]	inhibition of PPT/U3 cleavage (in words) [5]	EC50 [1, 11] [µM]	effect on DNA-dependent DNA polymerase activity [6]	effect on DNA-dependent DNA polymerase activity [7]	CC50 [3, 12] [µM]	EC50 ([1]; HIV-1 RF) [µM]	CC50 [3] [µM]	reduction of virus replication in culture [8]	EC50 ([1]; Human immunodeficiency virus 1, HIV-1 RF) [µM]	inhibition of RNase H activity of HIV RT in vitro [9]	IC50 [2] [µM]
Cc1cc(O)c(=O)c(O)c2c1CC(C(C)(O)CNCc1ccccc1F)CC2 (mixture of isomers) [Compound 4, 2-[2-(2-Fluoro-benzylamino)-1-hydroxy-1-methyl-ethyl]-5,7-dihydroxy-9-methyl-1,2,3,4-tetrahydrobenzocyclohepten-6-one]	no protection	1.4	not cytotoxic	> 50	less active	–	–	–	–	–	–	–	–	–	–
Cc1cc(O)c(=O)c(O)c2c1CC(C(C)(O)CNc1ccccc1)CC2 (mixture of isomers) [Compound 5, 5,7-Dihydroxy-2-(1-hydroxy-1-methyl-2-phenylamino-ethyl)-9-methyl-1,2,3,4-tetrahydrobenzocyclohepten-6-one]	showed protection	1.2	–	31.7	more active in blocking PPT/U3 cleavage	7.4	significantly and consistently inhibited	significantly and consistently inhibited	–	–	–	–	–	–	–
Cc1cc(O)c(=O)c(O)c2c1CC(C(C)(O)CO)CC2 (mixture of isomers) [Compound 12, 2-(1,2-Dihydroxy-1-methyl-ethyl)-5,7-dihydroxy-9-methyl-1,2,3,4-tetrahydrobenzocyclohepten-6-one]	no protection	1.9	not cytotoxic	–	–	–	–	–	> 50	–	–	–	–	–	–
Cc1cc(O)c(=O)c(O)c2c1CC(C(C)NCc1ccccc1)CC2 (mixture of isomers) [Compound 14, 2-(1-Benzylamino-ethyl)-5,7-Dihydroxy-9-methyl-1,2,3,4-tetrahydrobenzocyclohepten-6-one]	showed protection	1.1	–	16.7	less active	10.6	–	–	–	–	–	–	–	–	–
Cc1cc(O)c(=O)c(O)c2c1CC(C(C)(O)C[S+]([O-])Cc1ccccc1)CC2 (stereo not shown) [Compound 10, 2-(2-Benzylsulfinyl-1-hydroxy-1-methyl-ethyl)-5,7-dihydroxy-9-methyl-1,2,3,4-tetrahydrobenzocyclohepten-6-one]	showed protection	1.5	–	–	less active	–	significantly and consistently inhibited	significantly and consistently inhibited	–	14.5	> 50	–	–	–	–
C=C(C)[C@H]1CCc2c(c(C)cc(O)c(=O)c2O)C1 [Manicol, 5,7-dihydroxy-2-isopropenyl-9-methyl-1,2,3,4-tetrahydro-benzocyclohepten-6-one, reference compound]	no protection	–	–	13.6	–	–	–	–	–	–	–	ineffective	13.6	potently and specifically inhibit	–
CC(C)c1ccc(O)c(=O)c(O)c1 [β-Thujaplicinol, reference compound]	no protection	–	–	–	–	–	–	–	2.3	2.3	–	–	–	–	0.21
